How the values were obtained:
Nitric oxide (NO) = test: In vivo nitric oxide estimation in serum of LPS challenged mice; set-up: species or system balb/c mice; details: 1, 2.5, 5 and 10 mg/kg oral for 6 days, LPS 1 mg/kg i.v., serum 90 min after LPS
Description: (§1) Invivo experiments were carried out using balb/c mice that were orally administrated with graded oral doses of AD-B-63B (1, 2.5, 5 and 10 mg/kg) for 6 days and challenged with LPS. Nitric oxide (NO) is an important mediator of diverse physiologic and pathologic processes, including many inflammatory diseases [Abramson S B, Amin A R, Clancy R M, Attur M, (2001). The role of nitric oxide in tissue destruction. Best Practice & Research Clinical Rheumatology; 15: 831-845]. Several lines of evidence implicate NO in the pathogenesis of inflammation. For example, rodents in animal models of arthritis generate abundant quantities of NO, as reflected in high levels of serum and urinary NO that develop in association with disease manifestations [Stefanovic-Racic M, Meyers K, Meschter C, Coffey J W, Hoffman R A, Evans C H, (1994). Monomethyl arginine, an inhibitor of nitric oxide synthase, suppresses the development of adjuvant arthritis in rats. Arthritis & Rheumatism; 37: 1062-1069.] [McCartney-Francis N, Allen J B, Mizel D E, Albina J E, Xie Q W, Nathan C F, Wahl S M, (1993). Suppression of arthritis by an inhibitor of nitric oxide synthase. Journal of Experimental Medicine; 178: 749-754.] [Weinberg J B, (1998). […] TNF-α, IL-1 beta and Nitric oxide production was evaluated by a commercial ELISA kits (R&D Systems) in serum from AD-B-63B treated mice, 90 min after LPS injection.

TNF-α = test: In vivo TNF-α estimation in serum of LPS challenged mice; set-up: species or system balb/c mice; details: 1, 2.5, 5 and 10 mg/kg oral for 6 days, LPS 1 mg/kg i.v., serum 90 min after LPS
Description: as §1

[1] = test system: humoral antibody response; test: SRBC induced haemagglutination antibody titre (humoral immune response); type: in vivo, mice; details: for ANTIBODY TITRE MEAN ± S.E: blood on day 7
Description: 200 μl of 5×10^9 SRBC/ml was used to immunize the animals on day 0. Animals were treated with graded doses of AD-B-63B i.e., 1, 2.5, 5 and 10mg/kg p.o. for next six consecutive days. Blood samples were collected on day 7 for antibody titre assay. Haemagglutination antibody titre was determined following the microtitration technique described by Nelson and Midenhall, 1967. The value of highest serum dilution causing visible Haemagglutination was taken as titre. BSA saline alone served as control (Table 7).

CD4+ T cells = test: Lymphocyte immunophenotyping, CD4+ T cell population in SRBC immunised mice; type: in vivo, Swiss albino mice; details: graded doses; most significant suppression at 5 and 10 mg/kg vs sensitized control
Source text: Immunophenotyping focuses on lymphocyte populations involved in acquired immunity. Specific molecules present on the cell surface defines characteristics of lymphocytes such as state of activation or functional capabilities. Murine monoclonal antibodies conjugated to a fluorochrome and directed against co-receptors CD4 and CD8 were used in a multi parametric flowcytometric assay to quantify the lymphocyte subsets associated with the cell-mediated immune response.
Estimation of T cell surface markers: On day 0, mice were immunized by injecting 200 μl of 5×10^9 SRBC/ml intraperitonially. Drug administration was carried out for 6 days including the day of immunization. Same amount of SRBC was used to challenge the animals on day 7. After 24 h of challenge, blood was taken from retro-orbital plexus of animals for estimation of CD4^+ and CD8^+ T cells. 100 μl of whole blood was taken in each tube and FITC (fluorescein isothiocyanate) labelled CD4+ and PE (phycoerythrin) labelled CD8+ monoclonal antibodies were added and mixed gently. Tubes were incubated in the dark for 30 min. at room temperature. Subsequently, 2 ml of 1× FACS lysing solution was added at room temperature with gentle mixing. Samples were again incubated at room temperature for 10 min. […]

IL-1 beta = test: In vivo IL-1 beta estimation in serum of LPS challenged mice; set-up: species or system balb/c mice; details: 1, 2.5, 5 and 10 mg/kg oral for 6 days, LPS 1 mg/kg i.v., serum 90 min after LPS
Description: as §1

leucocyte migration = test: In vivo leucocyte migration (carrageenan induced pleurisy); set-up: species or system mice; details: for EXUDATE VOLUME Mean ± S.E.: 1 h before and 6 h after carrageenan, pleural exudate at 24 h
Description: Mice were injected with 0.2 ml of carrageenan (1% w/v) solution in sterilised normal saline into the pleural cavity by the modified method of Meacock and Kitchen, 1979 [Meacock S C R, Kitchen E A, (1979). Effect of non-steroidal antiinflammatory drug benoxaprofen on leukocyte migration. Journal of Pharmacy & Pharmacology; 31: 366-370]. The test drug was administered orally 1 h before and 6 h after the injection. After 24 h of carrageenan injection the pleural exudate was collected, volume measured and the total leucocyte count of the pleural fluid was determined (Table 3). Flowcytometry as a tool for evaluation of neutrophils is particularly useful because of their larger size than monocytes and lymphocytes when analysed on the forward scatter [FSc]. The percentage of these can be analysed by selectively ‘gating’ the neutrophils without physical separation of the cells (FIG. 4).

[2] = graded oral doses, highly significant effect at 10 mg/kg oral dose

Q: What does the source list for `CC(=O)OC(C)(C)/C=C/C(=O)[C@](C)(O)[C@H]1[C@H](O)C[C@@]2(C)[C@@H]3CC=C4[C@@H](C=C(O[C@@H]5O[C@H](CO)[C@@H](O)[C@H](O)[C@H]5O)C(=O)C4(C)C)[C@]3(C)C(=O)C[C@]12C` [AD-B-63B, 2-O-β-D-glucopyranosyl cucurbitacin E]?
A: Level of serum NO (Nitric oxide (NO)): significant reduction; Level of serum TNF-α (TNF-α): significant reduction; % ACTIVITY (decrease in antibody titre) ([1]; 1 mg/kg p.o.): 13.47↓ %; ANTIBODY TITRE MEAN ± S.E ([1]; 1 mg/kg p.o. for six days): 5.33 ± 0.45; % ACTIVITY (decrease in antibody titre) ([1]; 5 mg/kg p.o.): 33.11↓ %; ANTIBODY TITRE MEAN ± S.E ([1]; 5 mg/kg p.o. for six days): 4.12 ± 0.33; % ACTIVITY (decrease in antibody titre) ([1]; 10 mg/kg p.o.): 35.06↓ %; ANTIBODY TITRE MEAN ± S.E ([1]; 10 mg/kg p.o. for six days): 4.00 ± 0.31; antibody synthesis (haemagglutination antibody titre) ([1]; significant decrease at 2.5, 5 and 10 mg/kg p.o.): inhibition of antibody synthesis; percentage of CD4+ T-cell population (CD4+ T cells): decrease; Level of serum IL-1 beta (IL-1 beta): significant reduction; % inhibition of exudate volume (leucocyte migration; 1 mg/kg p.o.): (22.72%↓); % inhibition of total leucocyte count (leucocyte migration; 1 mg/kg p.o.): (12.12%↓); EXUDATE VOLUME Mean ± S.E. (leucocyte migration; 1 mg/kg p.o.): 0.85 ± 0.10 mL; % inhibition of exudate volume (leucocyte migration; 5 mg/kg p.o.): (38.18%↓); % inhibition of total leucocyte count (leucocyte migration; 5 mg/kg p.o.): (23.52%↓); EXUDATE VOLUME Mean ± S.E. (leucocyte migration; 5 mg/kg p.o.): 0.68 ± 0.18 mL; % inhibition of exudate volume (leucocyte migration; 10 mg/kg p.o.): (44.54%↓); % inhibition of total leucocyte count (leucocyte migration; 10 mg/kg p.o.): (24.39%↓); EXUDATE VOLUME Mean ± S.E. (leucocyte migration; 10 mg/kg p.o.): 0.61 ± 0.10 mL; exudates volume against control (leucocyte migration; [2]): dose dependent inhibition; total leucocytes count against control (leucocyte migration; [2]): dose dependent inhibition

Reference: US20130136772A1, “REGULATION OF IMMUNE RESPONSE BY COLOCYNTHIN AND/OR ITS DERIVATIVES” (priority 2010, published 2013)
